# Measured values: patent US11026963B2, “Senolytic compositions and uses thereof” (Rubedo Life Sciences, Inc., priority 2018, dated 2021)
# System: senescent C57BL/6 mouse hepatocytes
# Assay: Effect of compound (113) on doxorubicin-induced senescent hepatocytes after in vivo administration
# Settings: doxorubicin 20 mg/kg i.p.; 2×20 mg/kg i.p. 4 and 6 days later; livers after additional 2 days; FIG. 4C
# Description: Two groups of C57BL/6 mice (N=9/group) were injected intraperitoneally with doxorubicin (20 mg/kg) to induce hepatocellular senescence. 4 and 6 days later groups were injected i.p. with PBS or compound (113) (aka RBO-013) (2×20 mg/kg). A third group of animals served as controls. After an additional 2 days livers were removed and sectioned (30 μm) before staining for SA-β-Gal as previously described (FIGS. 4A and 4B). […] This senolytic effect was also corroborated by using quantitative PCR to detect mRNA levels of Cdkn2a (p16^INK4a) and IL-6 (N.B. Cdkn2a expression was exclusively detected in animals that received doxorubicin). Expression levels were reported relative to Actb as the reference gene.
row,Compound,senescent hepatocytes (as visualized by SA-β-Gal staining)
1,"CC(=O)OC[C@H]1O[C@@H](ONC(=O)/C=C/c2ccc(CNCCc3c(C)[nH]c4ccccc34)cc2)[C@H](OC(C)=O)[C@@H](OC(C)=O)[C@H]1OC(C)=O [(113), (2R,3S,4S,5R,6S)-2-(Acetoxymethyl)-6-(((E)-3-(4-(((2-(2-methyl-1H-indol-3yl)ethyl)amino)methyl)phenyl)acrylamido)oxy)tetrahydro-2H-pyran-3,4,5-triyl Triacetate]",reduction

# Same assay, conditions: quantitative PCR, relative to Actb; doxorubicin 20 mg/kg, 2×20 mg/kg i.p.; FIG. 4D
row,Compound,Cdkn2a (p16INK4a) gene expression in liver
1,"CC(=O)OC[C@H]1O[C@@H](ONC(=O)/C=C/c2ccc(CNCCc3c(C)[nH]c4ccccc34)cc2)[C@H](OC(C)=O)[C@@H](OC(C)=O)[C@H]1OC(C)=O [(113), (2R,3S,4S,5R,6S)-2-(Acetoxymethyl)-6-(((E)-3-(4-(((2-(2-methyl-1H-indol-3yl)ethyl)amino)methyl)phenyl)acrylamido)oxy)tetrahydro-2H-pyran-3,4,5-triyl Triacetate]",significant reduction

# Same assay, conditions: quantitative PCR, relative to Actb; doxorubicin 20 mg/kg, 2×20 mg/kg i.p.; FIG. 4E
row,Compound,IL-6 gene expression in liver
1,"CC(=O)OC[C@H]1O[C@@H](ONC(=O)/C=C/c2ccc(CNCCc3c(C)[nH]c4ccccc34)cc2)[C@H](OC(C)=O)[C@@H](OC(C)=O)[C@H]1OC(C)=O [(113), (2R,3S,4S,5R,6S)-2-(Acetoxymethyl)-6-(((E)-3-(4-(((2-(2-methyl-1H-indol-3yl)ethyl)amino)methyl)phenyl)acrylamido)oxy)tetrahydro-2H-pyran-3,4,5-triyl Triacetate]",significant reduction

# System: Mouse embryonic fibroblast cells (MEFs)
# Assay: Viability of proliferating or senescent mouse embryonic fibroblasts (DAPI/PI staining)
# Format: cell-based
# Settings: doxorubicin-induced senescent MEFs, 4 days, FIG. 1B
# Description: Mouse embryonic fibroblast cells were incubated with 300 nM doxorubicin for 24 hrs to induce senescence. Cells were washed and after incubation in media for 7 days, senescence was confirmed by staining for SA-β-Gal (Itahana et al., Methods Mol. Biol. 371 (2007) 21-31) and lack of incorporation of 5-ethynyl-2′-deoxyuridine (EdU) (see Yu et al., J. Immunol. Methods 350 (2009) 29-35).
# Proliferating or senescent MEFs were treated with increasing concentrations of either FURGal (101) or 5-fluorouridine (FUR) (102) for 4 days. Cells were washed and stained with 4′,6-diamidino-2-phenylindole (DAPI) and propidium iodide (PI) and the fraction of viable cells was assessed from the ratio of PI-positive nuclei over PI-negative nuclei.
row,Compound,toxicity towards senescent MEFs
1,"O=c1[nH]c(=O)n([C@@H]2O[C@H](CO)[C@@H](O)[C@H]2O)cc1F [(102), 5-fluorouridine, reference compound]",equitoxic

# Same assay, conditions: proliferating MEFs, 4 days, increasing concentrations (as high as 4 mM), FIG. 1A
row,Compound,cell viability / toxicity towards proliferating cells
1,"O=c1[nH]c(=O)n([C@@H]2O[C@H](CO)[C@@H](O)[C@H]2O)cc1F [(102), 5-fluorouridine, reference compound]",dramatically reduces cell viability

# System: Normal human fibroblasts (IMR90)
# Assay: Compound toxicity towards normal proliferative, senescent or quiescent fibroblasts (XTT cell viability assay)
# Format: cell-based
# Settings: IC50 against normal, proliferating cells divided by IC50 versus senescent (doxorubicin-induced) cells, three days treatment
# Description: Normal human fibroblasts (IMR90) and patient-derived β-galactosidase (GLB1) or α-fucosidase (FUCA1) deficient cells were used to determine change in cell viability after exposure to compound. Cells were cultured with DMEM and 10% heat inactivated FBS under a controlled atmosphere of 5% carbon dioxide and 5% oxygen, […] and confirmed by the absence of senescence associated β-galactosidase (SA-β-Gal) staining and the capacity to re-enter the cell cycle. Senescence was induced by treatment with doxorubicin and confirmed by SA-β-Gal positive staining and the lack of DNA replication. Cells were treated with compound for three days. Cell viability was determined by mitochondrial dehydrogenase activity (XTT assay. Cayman Chemical) at ten concentrations of the tested compound. To generate dose-response curves, data was fitted to a four-parameter Hill function and the IC50 was determined at Y=0.5 viability. The senolytic index (S.I.) for each compound was determined by dividing the IC50 against normal, proliferating cells by the IC50 versus senescent cells. Senolytic index data is shown in Table 1 with compounds having S.I.<1 (−), S.I>1 (+), S.I.>5 (++) and S.I>10 (+++).
row,Compound,Senolytic Index (S.I.)
1,"CC(C)c1cc(C(=O)N2Cc3ccc(CN4CCN(C)CC4)cc3C2)c(O)cc1O[C@@H]1O[C@H](CO)[C@H](O)[C@H](O)[C@H]1O (single isomer, unassigned) [(46)]",− (S.I.<1 (−))
2,"CCNC(=O)c1noc(-c2cc(C(C)C)c(O[C@@H]3O[C@H](CO)[C@H](O)[C@H](O)[C@H]3O)cc2O)c1-c1ccc(CN2CCOCC2)cc1 (single isomer, unassigned) [(48)]",+ (S.I>1 (+))
3,"CCNC(=O)c1noc(-c2cc(C(C)C)c(O)cc2O[C@@H]2O[C@H](CO)[C@H](O)[C@H](O)[C@H]2O)c1-c1ccc(CN2CCOCC2)cc1 (single isomer, unassigned) [(49)]",+ (S.I>1 (+))
4,"CC(C)c1cc(-c2n[nH]c(=O)n2-c2ccc3c(ccn3C)c2)c(O)cc1O[C@@H]1O[C@H](CO)[C@H](O)[C@H](O)[C@H]1O (single isomer, unassigned) [(127)]",+ (S.I>1 (+))
5,"CC(C)c1cc(-c2n[nH]c(=O)n2-c2ccc3c(ccn3C)c2)c(O[C@@H]2O[C@H](CO)[C@H](O)[C@H](O)[C@H]2O)cc1O (single isomer, unassigned) [(128)]",− (S.I.<1 (−))
6,"Cc1[nH]c2ccccc2c1CCNCc1ccc(/C=C/C(=O)NO[C@@H]2O[C@H](CO)[C@H](O)[C@H](O)[C@H]2O)cc1 [(26), (E)-3-(4-(((2-(2-Methyl-1H-indol-3-yl)ethyl)amino)methyl)phenyl)-N-(((2S,3R,4S,5R,6R)-3,4,5-trihydroxy-6-(hydroxymethyl)tetrahydro-2H-pyran-2-yl)oxy)acrylamide]",++ (S.I.>5 (++))
7,"Cc1[nH]c2ccccc2c1CCNCc1ccc(/C=C/C(=O)NO[C@@H]2O[C@@H](C)[C@@H](O)[C@@H](O)[C@@H]2O)cc1 [(35), (E)-3-(4-(((2-(2-Methyl-1H-indol-3-yl)ethyl)amino)methyl)phenyl)-N-(((2S,3S,4R,5S,6S)-3,4,5-trihydroxy-6-methyltetrahydro-2H-pyran-2-yl)oxy)acrylamide]",+ (S.I>1 (+))
8,CC(C)c1cc(C(=O)N2Cc3ccc(CN4CCN(C)CC4)cc3C2)c(O[C@@H]2O[C@H](CO)[C@H](O)[C@H](O)[C@H]2O)cc1O [(47)],− (S.I.<1 (−))
9,"Cn1cc(CNCC2CCN(c3ncc(C(=O)NO[C@@H]4O[C@H](CO)[C@H](O)[C@H](O)[C@H]4O)cn3)CC2)c2ccccc21 [(112), 2-(4-((((1-methyl-1H-indol-3-yl)methyl)amino)methyl)piperidin-1-yl)-N-(((2S,3R,4S,5R,6R)-3,4,5-trihydroxy-6-(hydroxymethyl)tetrahydro-2H-pyran-2-yl)oxy)pyrimidine-5-carboxamide]",+ (S.I>1 (+))
10,"CC(=O)OC[C@H]1O[C@@H](ONC(=O)/C=C/c2ccc(CNCCc3c(C)[nH]c4ccccc34)cc2)[C@H](OC(C)=O)[C@@H](OC(C)=O)[C@H]1OC(C)=O [(113), (2R,3S,4S,5R,6S)-2-(Acetoxymethyl)-6-(((E)-3-(4-(((2-(2-methyl-1H-indol-3yl)ethyl)amino)methyl)phenyl)acrylamido)oxy)tetrahydro-2H-pyran-3,4,5-triyl Triacetate]",+++ (S.I>10 (+++))
11,"CC(=O)OC[C@H]1O[C@@H](ONC(=O)c2cnc(N3CCC(CNCc4cn(C)c5ccccc45)CC3)nc2)[C@H](OC(C)=O)[C@@H](OC(C)=O)[C@H]1OC(C)=O [(114), (2R,3S,4S,5R,6S)-2-(Acetoxymethyl)-6-((2-(4-((((1-methyl-1H-indol-3-yl)methyl)amino)methyl)piperidin-1-yl)pyrimidine-5-carboxamido)oxy)tetrahydro-2H-pyran-3,4,5-triyl Triacetate]",+ (S.I>1 (+))
12,"C[C@@H]1O[C@@H](ONC(=O)c2cnc(N3CCC(CNCc4cn(C)c5ccccc45)CC3)nc2)[C@@H](O)[C@H](O)[C@@H]1O [(120), 2-(4-((((l-Methyl-1H-indol-3-yl)methyl)amino)methyl)piperidin-1-yl)-N-(((2S,3S,4R,5S,6S)-3,4,5-trihydroxy-6-methyltetrahydro-2H-pyran-2-yl)oxy)pyrimidine-5-carboxamide]",+ (S.I>1 (+))
13,"CCC(=O)O[C@H]1[C@H](OC(=O)CC)[C@H](ONC(=O)/C=C/c2ccc(CNCCc3c(C)[nH]c4ccccc34)cc2)O[C@@H](C)[C@H]1OC(=O)CC [(121), (2S,3R,4R,5S,6S)-2-Methyl-6-(((E)-3-(4-(((2-(2-methyl-1H-indol-3-yl)ethyl)amino)methyl)phenyl)acrylamido)oxy)tetrahydro-2H-pyran-3,4,5-triyl Tripropionate]",+++ (S.I>10 (+++))
14,"Cc1[nH]c2ccccc2c1CCNCc1ccc(/C=C/C(=O)NO[C@@H]2O[C@@H](C)[C@@H](OC(=O)C(C)C)[C@@H](OC(=O)C(C)C)[C@@H]2OC(=O)C(C)C)cc1 [(122), (2S,3R,4R,5S,6S)-2-Methyl-6-(((E)-3-(4-(((2-(2-methyl-1H-indol-3-yl)ethyl)amino)methyl)phenyl)acrylamido)oxy)tetrahydro-2H-pyran-3,4,5-triyl tris(2-methylpropanoate)]",+ (S.I>1 (+))
15,"COc1ccc(-c2nc(N3CCOCC3)c3sc(CN(C)c4ncc(C(=O)NO[C@@H]5O[C@H](COC(C)=O)[C@H](OC(C)=O)[C@H](OC(C)=O)[C@H]5OC(C)=O)cn4)cc3n2)cn1 [(123), (2R,3S,4S,5R,6S)-2-(Acetoxymethyl)-6-((2-(((2-(6-methoxypyridin-3-yl)-4-morpholinothieno[3,2-d]pyrimidin-6-yl)methyl)(methyl)amino)pyrimidine-5-carboxamido)oxy)tetrahydro-2H-pyran-3,4,5-triyl Triacetate]",+ (S.I>1 (+))
16,"COc1ccc(-c2nc(N3CCOCC3)c3sc(CN(C)c4ncc(C(=O)NO[C@@H]5O[C@H](CO)[C@H](O)[C@H](O)[C@H]5O)cn4)cc3n2)cn1 [(124), 2-(((2-(6-Methoxypyridin-3-yl)-4-morpholinothieno[3,2-d]pyrimidin-6-yl)methyl)(methyl)amino)-N-(((2S,3R,4S,5R,6R)-3,4,5-trihydroxy-6-(hydroxymethyl)tetrahydro-2H-pyran-2-yl)oxy)pyrimidine-5-carboxamide]",− (S.I.<1 (−))
17,"COc1ccc(-c2nc(N3CCOCC3)c3sc(CN(C)c4ncc(C(=O)NO[C@@H]5O[C@@H](C)[C@@H](OC(C)=O)[C@@H](OC(C)=O)[C@@H]5OC(C)=O)cn4)cc3n2)cn1 [(125), (2S,3S,4R,5R,6S)-2-((2-(((2-(6-Methoxypyridin-3-yl)-4-morpholinothieno[3,2-d]pyrimidin-6-yl)methyl)(methyl)amino)pyrimidine-5-carboxamido)oxy)-6-methyltetrahydro-2H-pyran-3,4,5-triyl Triacetate]",++ (S.I.>5 (++))
18,"COc1ccc(-c2nc(N3CCOCC3)c3sc(CN(C)c4ncc(C(=O)NO[C@@H]5O[C@@H](C)[C@@H](O)[C@@H](O)[C@@H]5O)cn4)cc3n2)cn1 [(126), 2-(((2-(6-methoxypyridin-3-yl)-4-morpholinothieno[3,2-d]pyrimidin-6-yl)methyl)(methyl)amino)-N-(((2S,3S,4R,5S,6S)-3,4,5-trihydroxy-6-methyltetrahydro-2H-pyran-2-yl)oxy)pyrimidine-5-carboxamide]",− (S.I.<1 (−))
19,"CC(=O)O[C@H]1[C@H](OC(C)=O)[C@H](ONC(=O)c2cnc(N3CCC(CNCc4cn(C)c5ccccc45)CC3)nc2)O[C@@H](C)[C@H]1OC(C)=O [Compound (115), (2S,3R,4R,5S,6S)-2-Methyl-6-((2-(4-((((1-methyl-1H-indol-3-yl)methyl)amino)methyl)piperidin-1-yl)pyrimidine-5-carboxamido)oxy)tetrahydro-2H-pyran-3,4,5-triyl Triacetate]",+++ (S.I>10 (+++))
